Results taken from paper PMC2797370 (2009).

Molecular target: T1, prostaglandin endoperoxide synthase-2 (PGHS-2) (Mus musculus, UniProt Q05769)
T1 sequence (Q05769 18-604): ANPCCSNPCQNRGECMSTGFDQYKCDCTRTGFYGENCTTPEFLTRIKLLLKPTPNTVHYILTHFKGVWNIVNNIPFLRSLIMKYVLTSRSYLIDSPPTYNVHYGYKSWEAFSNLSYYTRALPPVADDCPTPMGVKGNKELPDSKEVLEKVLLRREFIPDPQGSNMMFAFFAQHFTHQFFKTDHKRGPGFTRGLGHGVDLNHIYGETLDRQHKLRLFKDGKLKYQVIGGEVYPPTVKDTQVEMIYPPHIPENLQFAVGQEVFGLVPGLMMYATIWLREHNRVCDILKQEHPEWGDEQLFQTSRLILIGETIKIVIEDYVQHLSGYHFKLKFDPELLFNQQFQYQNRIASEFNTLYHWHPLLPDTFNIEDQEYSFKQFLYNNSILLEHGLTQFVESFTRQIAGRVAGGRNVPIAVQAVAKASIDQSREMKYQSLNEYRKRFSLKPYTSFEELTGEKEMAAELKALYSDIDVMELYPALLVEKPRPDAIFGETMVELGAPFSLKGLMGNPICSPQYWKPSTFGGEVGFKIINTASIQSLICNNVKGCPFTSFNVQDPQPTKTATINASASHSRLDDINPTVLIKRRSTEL
Assay: oxygen uptake assay of purified enzyme
Assay type: biochemical

CCCCC/C=C\C/C=C\C/C=C\C/C=C\CCCC(=O)Nc1cccc(O)c1 [3-HPAA, N-(3-Hydroxyphenyl)eicosa-5,8,11,14-tetraenamide]
IC50: 1600 nM
